Experimental data taken from the NIST ThermoML archive (doi:10.1016/j.tca.2006.01.013).
± gives the expanded uncertainty stated by the source.

Conditions: 101.33 kPa, Liquid, Vibrating tube method

NCCN [ethane-1,2-diamine]
Conditions | mass density [kg/m3]
285.15 K | 904.27 ± 0.47
285.65 K | 903.81 ± 0.47
286.15 K | 903.34 ± 0.47
286.65 K | 902.87 ± 0.47
287.15 K | 902.41 ± 0.47
287.65 K | 901.94 ± 0.47
288.15 K | 901.47 ± 0.47
288.65 K | 901 ± 0.47
289.15 K | 900.53 ± 0.47
289.65 K | 900.07 ± 0.47
290.15 K | 899.6 ± 0.47
290.65 K | 899.13 ± 0.47
291.15 K | 898.66 ± 0.46
291.65 K | 898.19 ± 0.46
292.15 K | 897.72 ± 0.46
292.65 K | 897.25 ± 0.46
293.15 K | 896.78 ± 0.46
293.65 K | 896.31 ± 0.46
294.15 K | 895.85 ± 0.46
294.65 K | 895.38 ± 0.46
295.15 K | 894.91 ± 0.46
295.65 K | 894.44 ± 0.46
296.15 K | 893.97 ± 0.46
296.65 K | 893.5 ± 0.46
297.15 K | 893.03 ± 0.46
297.65 K | 892.56 ± 0.46
298.15 K | 892.09 ± 0.46
298.65 K | 891.62 ± 0.46
299.15 K | 891.14 ± 0.46
299.65 K | 890.67 ± 0.46
300.15 K | 890.2 ± 0.46
300.65 K | 889.73 ± 0.46
301.15 K | 889.26 ± 0.46
301.65 K | 888.79 ± 0.46
302.15 K | 888.32 ± 0.46
302.65 K | 887.85 ± 0.46
303.15 K | 887.38 ± 0.46
303.65 K | 886.9 ± 0.46
304.15 K | 886.43 ± 0.46
304.65 K | 885.96 ± 0.46
305.15 K | 885.49 ± 0.46
305.65 K | 885.02 ± 0.46
306.15 K | 884.54 ± 0.46
306.65 K | 884.07 ± 0.46
307.15 K | 883.6 ± 0.46
307.65 K | 883.12 ± 0.46
308.15 K | 882.65 ± 0.46
308.65 K | 882.18 ± 0.46
309.15 K | 881.7 ± 0.46
309.65 K | 881.23 ± 0.46
310.15 K | 880.76 ± 0.46
310.65 K | 880.28 ± 0.46
311.15 K | 879.81 ± 0.46
311.65 K | 879.33 ± 0.46
312.15 K | 878.86 ± 0.46
312.65 K | 878.38 ± 0.46
313.15 K | 877.91 ± 0.46
313.65 K | 877.44 ± 0.46
314.15 K | 876.96 ± 0.46
314.65 K | 876.48 ± 0.46
315.15 K | 876.01 ± 0.46
315.65 K | 875.53 ± 0.46
316.15 K | 875.06 ± 0.46
316.65 K | 874.58 ± 0.46
317.15 K | 874.11 ± 0.46
317.65 K | 873.63 ± 0.46
318.15 K | 873.15 ± 0.46
318.65 K | 872.68 ± 0.46
319.15 K | 872.2 ± 0.46
319.65 K | 871.72 ± 0.46
320.15 K | 871.25 ± 0.45
320.65 K | 870.77 ± 0.45
321.15 K | 870.29 ± 0.45
321.65 K | 869.81 ± 0.45
322.15 K | 869.34 ± 0.45
322.65 K | 868.86 ± 0.45
323.15 K | 868.38 ± 0.45
323.65 K | 867.9 ± 0.45
324.15 K | 867.42 ± 0.45
324.65 K | 866.94 ± 0.45
325.15 K | 866.47 ± 0.45
325.65 K | 865.99 ± 0.45
326.15 K | 865.51 ± 0.45
326.65 K | 865.03 ± 0.45
327.15 K | 864.55 ± 0.45
327.65 K | 864.07 ± 0.45
328.15 K | 863.59 ± 0.45
328.65 K | 863.11 ± 0.45
329.15 K | 862.63 ± 0.45
329.65 K | 862.14 ± 0.45
330.15 K | 861.66 ± 0.45
330.65 K | 861.18 ± 0.45
331.15 K | 860.7 ± 0.45
331.65 K | 860.22 ± 0.45
332.15 K | 859.74 ± 0.45
332.65 K | 859.25 ± 0.45
333.15 K | 858.77 ± 0.45
333.65 K | 858.29 ± 0.45
334.15 K | 857.81 ± 0.45
334.65 K | 857.32 ± 0.45
335.15 K | 856.84 ± 0.45
335.65 K | 856.36 ± 0.45
336.15 K | 855.87 ± 0.45
336.65 K | 855.39 ± 0.45
337.15 K | 854.91 ± 0.45
337.65 K | 854.42 ± 0.45
338.15 K | 853.93 ± 0.45
338.65 K | 853.45 ± 0.45
339.15 K | 852.96 ± 0.45
339.65 K | 852.48 ± 0.45
340.15 K | 851.99 ± 0.45
340.65 K | 851.51 ± 0.45
341.15 K | 851.02 ± 0.45
341.65 K | 850.53 ± 0.45
342.15 K | 850.05 ± 0.45
342.65 K | 849.56 ± 0.45
343.15 K | 849.07 ± 0.45
343.65 K | 848.58 ± 0.45
344.15 K | 848.1 ± 0.45
344.65 K | 847.61 ± 0.45
345.15 K | 847.12 ± 0.45
345.65 K | 846.63 ± 0.45
346.15 K | 846.14 ± 0.45
346.65 K | 845.66 ± 0.45
347.15 K | 845.17 ± 0.45
347.65 K | 844.68 ± 0.45
348.15 K | 844.19 ± 0.45
348.65 K | 843.7 ± 0.45
349.15 K | 843.21 ± 0.45
349.65 K | 842.72 ± 0.45
350.15 K | 842.23 ± 0.45
350.65 K | 841.75 ± 0.45
351.15 K | 841.26 ± 0.45
351.65 K | 840.76 ± 0.44
352.15 K | 840.27 ± 0.44
352.65 K | 839.78 ± 0.44
353.15 K | 839.29 ± 0.44
353.65 K | 838.8 ± 0.44
354.15 K | 838.31 ± 0.44
354.65 K | 837.81 ± 0.44
355.14 K | 837.32 ± 0.44
355.65 K | 836.83 ± 0.44
356.15 K | 836.33 ± 0.44
356.64 K | 835.84 ± 0.44
357.15 K | 835.35 ± 0.44
357.65 K | 834.85 ± 0.44
358.14 K | 834.36 ± 0.44
358.64 K | 833.86 ± 0.44
359.14 K | 833.37 ± 0.44
359.64 K | 832.87 ± 0.44
360.14 K | 832.38 ± 0.44
360.64 K | 831.88 ± 0.44
361.14 K | 831.38 ± 0.44
361.65 K | 830.89 ± 0.44
362.15 K | 830.39 ± 0.44
362.65 K | 829.89 ± 0.44
363.15 K | 829.4 ± 0.44
